Test system: 299254-011-R-J1-PDC complex spheroid viability
Experiment: Anticancer human tumor 299254-011-R-J1-PDC patient-derived melanoma cell line growth inhibition [POLQ]
Settings: for IC50: curve of first compound; for viability, T/C: stronger effect = lower value
Method in brief: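 Complex spheroid viability model combining PDC tumour cells with endothelial (HUVEC) and MSC stromal cells. Novobiocin, ART-558 or RP6685 were tested singly and in combination with standard and investigational anticancer drugs. Each was titrated in half-log steps from near clinical Cmax, or from 10 microM where Cmax was unknown.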

[1] = second compound 0.0316 µM, first compound 0.00316 µM
[2] = second compound 0.0316 µM, first compound 0.01 µM
[3] = second compound 0.0316 µM, first compound 0.0316 µM
[4] = second compound 0.0316 µM, first compound 0.1 µM
[5] = second compound 0.1 µM, first compound 0.00316 µM
[6] = second compound 0.1 µM, first compound 0.01 µM
[7] = second compound 0.1 µM, first compound 0.0316 µM
[8] = second compound 0.1 µM, first compound 0.1 µM
[9] = second compound 0.316 µM, first compound 0.00316 µM
[10] = second compound 0.316 µM, first compound 0.01 µM
[11] = second compound 0.316 µM, first compound 0.0316 µM
[12] = second compound 0.316 µM, first compound 0.1 µM
[13] = second compound 1 µM, first compound 0.00316 µM
[14] = second compound 1 µM, first compound 0.01 µM
[15] = second compound 1 µM, first compound 0.0316 µM
[16] = second compound 1 µM, first compound 0.1 µM
[17] = second compound 3.16 µM, first compound 0.00316 µM
[18] = second compound 3.16 µM, first compound 0.01 µM
[19] = second compound 3.16 µM, first compound 0.0316 µM
[20] = second compound 3.16 µM, first compound 0.1 µM
[21] = second compound 10 µM, first compound 0.00316 µM
[22] = second compound 10 µM, first compound 0.01 µM
[23] = second compound 10 µM, first compound 0.0316 µM
[24] = second compound 10 µM, first compound 0.1 µM
[25] = second compound 0.0316 µM, first compound 0.316 µM
[26] = second compound 0.0316 µM, first compound 1 µM
[27] = second compound 0.1 µM, first compound 0.316 µM
[28] = second compound 0.1 µM, first compound 1 µM
[29] = second compound 0.316 µM, first compound 0.316 µM
[30] = second compound 0.316 µM, first compound 1 µM
[31] = second compound 1 µM, first compound 0.316 µM
[32] = second compound 1 µM, first compound 1 µM
[33] = second compound 3.16 µM, first compound 0.316 µM
[34] = second compound 3.16 µM, first compound 1 µM
[35] = second compound 10 µM, first compound 0.316 µM
[36] = second compound 10 µM, first compound 1 µM
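Also: spheroids exposed to drugs for one week before measurement.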
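For viability, T/C in this document: percent viability relative to DMSO vehicle control taken as 100%.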

CC[C@@]1(O)C(=O)OCc2c1cc1n(c2=O)Cc2cc3c(CN(C)C)c(O)ccc3nc2-1 + Nc1ccc(C#CCN(C(=O)Cc2ncc(C(F)(F)F)cc2C(F)(F)F)c2ccc(F)cc2)nn1
IC50 (second compound 0.0316 µM): > 0.1 µM
IC50 (second compound 0.1 µM): > 0.1 µM
IC50 (second compound 0.316 µM): > 0.1 µM
IC50 (second compound 1 µM): > 0.1 µM
IC50 (second compound 3.16 µM): > 0.1 µM
IC50 (second compound 10 µM): > 0.1 µM
viability, T/C (second compound 0.0316 µM, first compound 0.000316 µM): 133%
viability, T/C (second compound 0.0316 µM, first compound 0.001 µM): 112%
viability, T/C [1]: 108%
viability, T/C [2]: 101%
viability, T/C [3]: 88.5%
viability, T/C [4]: 77.8%
viability, T/C (second compound 0.1 µM, first compound 0.000316 µM): 111%
viability, T/C (second compound 0.1 µM, first compound 0.001 µM): 107%
viability, T/C [5]: 105%
viability, T/C [6]: 94.7%
viability, T/C [7]: 94.8%
viability, T/C [8]: 84.6%
viability, T/C (second compound 0.316 µM, first compound 0.000316 µM): 106%
viability, T/C (second compound 0.316 µM, first compound 0.001 µM): 102%
viability, T/C [9]: 86.7%
viability, T/C [10]: 103%
viability, T/C [11]: 112%
viability, T/C [12]: 92.9%
viability, T/C (second compound 1 µM, first compound 0.000316 µM): 99.6%
viability, T/C (second compound 1 µM, first compound 0.001 µM): 106%
viability, T/C [13]: 107%
viability, T/C [14]: 111%
viability, T/C [15]: 109%
viability, T/C [16]: 96%
viability, T/C (second compound 3.16 µM, first compound 0.000316 µM): 94.2%
viability, T/C (second compound 3.16 µM, first compound 0.001 µM): 112%
viability, T/C [17]: 95%
viability, T/C [18]: 96.9%
viability, T/C [19]: 92.2%
viability, T/C [20]: 96.6%
viability, T/C (second compound 10 µM, first compound 0.000316 µM): 102%
viability, T/C (second compound 10 µM, first compound 0.001 µM): 103%
viability, T/C [21]: 95%
viability, T/C [22]: 94.2%
viability, T/C [23]: 99.6%
viability, T/C [24]: 68.5%

CCc1c2c(nc3ccc(O)cc13)-c1cc3c(c(=O)n1C2)COC(=O)[C@]3(O)CC + Nc1ccc(C#CCN(C(=O)Cc2ncc(C(F)(F)F)cc2C(F)(F)F)c2ccc(F)cc2)nn1
IC50 (second compound 0.0316 µM): > 1 µM
IC50 (second compound 0.1 µM): > 1 µM
IC50 (second compound 0.316 µM): > 1 µM
IC50 (second compound 1 µM): > 1 µM
IC50 (second compound 3.16 µM): > 1 µM
IC50 (second compound 10 µM): > 1 µM
viability, T/C [1]: 94.8%
viability, T/C [2]: 85.3%
viability, T/C [3]: 81.9%
viability, T/C [4]: 75.5%
viability, T/C [25]: 76.8%
viability, T/C [26]: 63.9%
viability, T/C [5]: 89.7%
viability, T/C [6]: 85.5%
viability, T/C [7]: 72.2%
viability, T/C [8]: 77.2%
viability, T/C [27]: 68.7%
viability, T/C [28]: 57.9%
viability, T/C [9]: 108%
viability, T/C [10]: 81.7%
viability, T/C [11]: 69.5%
viability, T/C [12]: 79%
viability, T/C [29]: 71%
viability, T/C [30]: 58.5%
viability, T/C [13]: 111%
viability, T/C [14]: 85.3%
viability, T/C [15]: 73.9%
viability, T/C [16]: 79.5%
viability, T/C [31]: 63.6%
viability, T/C [32]: 55.6%
viability, T/C [17]: 97.6%
viability, T/C [18]: 84.1%
viability, T/C [19]: 81.9%
viability, T/C [20]: 72.3%
viability, T/C [33]: 72.9%
viability, T/C [34]: 59.9%
viability, T/C [21]: 96.4%
viability, T/C [22]: 73.2%
viability, T/C [23]: 68.7%
viability, T/C [24]: 71.1%
viability, T/C [35]: 61.9%
viability, T/C [36]: 61.5%

COc1cc(C2c3cc4c(cc3C(OC3OC5COC(C)OC5C(O)C3O)C3COC(=O)C23)OCO4)cc(OC)c1O (stereo unspecified) + Nc1ccc(C#CCN(C(=O)Cc2ncc(C(F)(F)F)cc2C(F)(F)F)c2ccc(F)cc2)nn1
IC50 (second compound 0.0316 µM): > 10 µM
IC50 (second compound 0.1 µM): > 10 µM
IC50 (second compound 0.316 µM): > 10 µM
IC50 (second compound 1 µM): > 10 µM
IC50 (second compound 3.16 µM): > 10 µM
IC50 (second compound 10 µM): > 10 µM
viability, T/C [3]: 112%
viability, T/C [4]: 105%
viability, T/C [25]: 87.5%
viability, T/C [26]: 92.2%
viability, T/C (second compound 0.0316 µM, first compound 3.16 µM): 78.7%
viability, T/C (second compound 0.0316 µM, first compound 10 µM): 63.5%
viability, T/C [7]: 112%
viability, T/C [8]: 94.4%
viability, T/C [27]: 112%
viability, T/C [28]: 84.5%
viability, T/C (second compound 0.1 µM, first compound 3.16 µM): 89.7%
viability, T/C (second compound 0.1 µM, first compound 10 µM): 69.7%
viability, T/C [11]: 114%
viability, T/C [12]: 100%
viability, T/C [29]: 88.5%
viability, T/C [30]: 106%
viability, T/C (second compound 0.316 µM, first compound 3.16 µM): 83.7%
viability, T/C (second compound 0.316 µM, first compound 10 µM): 74.8%
viability, T/C [15]: 108%
viability, T/C [16]: 99.2%
viability, T/C [31]: 90.3%
viability, T/C [32]: 99.6%
viability, T/C (second compound 1 µM, first compound 3.16 µM): 71.8%
viability, T/C (second compound 1 µM, first compound 10 µM): 82.3%
viability, T/C [19]: 99.7%
viability, T/C [20]: 102%
viability, T/C [33]: 88.9%
viability, T/C [34]: 80.7%
viability, T/C (second compound 3.16 µM, first compound 3.16 µM): 76.8%
viability, T/C (second compound 3.16 µM, first compound 10 µM): 69.3%
viability, T/C [23]: 98.8%
viability, T/C [24]: 100%
viability, T/C [35]: 89.9%
viability, T/C [36]: 75.5%
viability, T/C (second compound 10 µM, first compound 3.16 µM): 89.1%
viability, T/C (second compound 10 µM, first compound 10 µM): 71.7%

Source: PubChem BioAssay AID1963849 (Molecular Pharmacology Branch, DTP, NCI, 2024)
